Assay results reported in patent US6689773B2, “Uracil substituted phenyl sulfamoyl carboxamides” (BASF Aktiengesellschaft, priority 2000, dated 2004).

What was measured:
Format in all cases: in vivo
[1] = system: IPOHE, Morningglory, Ivyleaf, Ipomoea hederacea, (L)Jacq.; experiment: Preemergence herbicidal evaluation (Example 148); settings: rating scale 0-9, two to four weeks after treatment
Protocol: (§1) The scale is based upon a visual observation of plant stand, vigor, malformation, size, chlorosis and overall plant appearance as compared with a control.
(§2) The herbicidal activity of the compounds of the present invention was evaluated by the following tests wherein the seeds of a variety of monocotyledonous and dicotyledonous plants were separately mixed with potting soil and planted on top of approximately one inch of soil in separate pint cups. After planting, the cups were sprayed with the selected aqueous acetone solution containing test compound in sufficient quantity to provide the equivalent of about 0.125 to 0.250 kg per hectare of test compound per cup. The treated cups were then placed on greenhouse benches, watered and cared for in accordance with conventional greenhouse procedures. From two to four weeks after treatment, the tests were terminated and each cup was examined and rated according to the rating system provided in Example 94. When more than one test was performed for a given compound, the data were averaged.

[2] = system: TRZAW, Winter wheat, Tritium Aestivum, L. (Winter); experiment: Preemergence herbicidal evaluation (Example 148); settings: rating scale 0-9, two to four weeks after treatment
Protocol: as §1, §2

[3] = system: ALOMY, Blackgrass, Alopecurus myosuroides; experiment: Preemergence herbicidal evaluation (Example 148); settings: rating scale 0-9, two to four weeks after treatment
Protocol: as §1, §2

[4] = system: GLXMA, Soybean, Glycine max, (L.) Merr.; experiment: Preemergence herbicidal evaluation (Example 148); settings: rating scale 0-9, two to four weeks after treatment
Protocol: as §1, §2

[5] = system: SETVI, Green foxtail, Setaria viridis, (L.)Beau; experiment: Preemergence herbicidal evaluation (Example 148); settings: rating scale 0-9, two to four weeks after treatment
Protocol: as §1, §2

[6] = system: CHEAL, Lambsquarters, Chenopodium album, L. Common; experiment: Preemergence herbicidal evaluation (Example 148); settings: rating scale 0-9, two to four weeks after treatment
Protocol: as §1, §2

[7] = system: ABUTH, Velvetleaf, Abutilon theophrasti, Medic.; experiment: Preemergence herbicidal evaluation (Example 148); settings: rating scale 0-9, two to four weeks after treatment
Protocol: as §1, §2

[8] = system: DIGSA, Crabgrass, (Hairy) L, Digitaria sanguinalis, (L)Scop; experiment: Preemergence herbicidal evaluation (Example 148); settings: rating scale 0-9, two to four weeks after treatment
Protocol: as §1, §2

[9] = system: ZEAMX, Field corn, Zea mays L.; experiment: Preemergence herbicidal evaluation (Example 148); settings: rating scale 0-9, two to four weeks after treatment
Protocol: as §1, §2

[10] = system: ECHCG, Barnyardgrass, Echinochloa crusgalli, (L.)Beau; experiment: Preemergence herbicidal evaluation (Example 148); settings: rating scale 0-9, two to four weeks after treatment
Protocol: as §1, §2

[11] = system: XANST, Cocklebur, Xanthium strumariam; experiment: Preemergence herbicidal evaluation (Example 148); settings: rating scale 0-9, two to four weeks after treatment
Protocol: as §1, §2

[12] = system: AMBEL, Ragweed, Common, Ambrosia artemiisifolia, L.; experiment: Preemergence herbicidal evaluation (Example 148); settings: rating scale 0-9, two to four weeks after treatment
Protocol: as §1, §2

[13] = system: IPOHE, Morningglory, Ivyleaf, Ipomoea hederacea, (L)Jacq.; experiment: Postemergence herbicidal evaluation (Example 147); settings: rating scale 0-9, two to three weeks after treatment
Protocol: (§3) Seedling plants were grown in jiffy flats for about two weeks. The test compounds were dispersed in 80/20 acetone/water mixtures containing 1.0% SUN-IT®II, a methylated seed oil, in sufficient quantities to provide the equivalent of about 0.016 to 0.032 kg per hectare of active compound when applied to the plants through a spray nozzle operating at 40 psi for a predetermined time. After spraying, the plants were placed on greenhouse benches and were cared for in accordance with conventional greenhouse procedures. Approximately two to three weeks after treatment, the seedling plants were examined and rated according to the rating scale (0-9) set forth below. Where more than one test is involved for a given compound, the data are averaged. [table] The scale is based upon a visual observation of plant stand, vigor, malformation, size, chlorosis and overall plant appearance as compared with a control. Plant species employed in these evaluations are reported by header abbreviation, common name and scientific name. [table]

[14] = system: TRZAW, Winter wheat, Tritium Aestivum, L. (Winter); experiment: Postemergence herbicidal evaluation (Example 147); settings: rating scale 0-9, two to three weeks after treatment
Protocol: as §3

[15] = system: ALOMY, Blackgrass, Alopecurus myosuroides; experiment: Postemergence herbicidal evaluation (Example 147); settings: rating scale 0-9, two to three weeks after treatment
Protocol: as §3

[16] = system: GLXMA, Soybean, Glycine max, (L.) Merr.; experiment: Postemergence herbicidal evaluation (Example 147); settings: rating scale 0-9, two to three weeks after treatment
Protocol: as §3

[17] = system: SETVI, Green foxtail, Setaria viridis, (L.)Beau; experiment: Postemergence herbicidal evaluation (Example 147); settings: rating scale 0-9, two to three weeks after treatment
Protocol: as §3

[18] = system: CHEAL, Lambsquarters, Chenopodium album, L. Common; experiment: Postemergence herbicidal evaluation (Example 147); settings: rating scale 0-9, two to three weeks after treatment
Protocol: as §3

[19] = system: ABUTH, Velvetleaf, Abutilon theophrasti, Medic.; experiment: Postemergence herbicidal evaluation (Example 147); settings: rating scale 0-9, two to three weeks after treatment
Protocol: as §3

[20] = system: DIGSA, Crabgrass, (Hairy) L, Digitaria sanguinalis, (L)Scop; experiment: Postemergence herbicidal evaluation (Example 147); settings: rating scale 0-9, two to three weeks after treatment
Protocol: as §3

[21] = system: ZEAMX, Field corn, Zea mays L.; experiment: Postemergence herbicidal evaluation (Example 147); settings: rating scale 0-9, two to three weeks after treatment
Protocol: as §3

[22] = system: ECHCG, Barnyardgrass, Echinochloa crusgalli, (L.)Beau; experiment: Postemergence herbicidal evaluation (Example 147); settings: rating scale 0-9, two to three weeks after treatment
Protocol: as §3

[23] = system: AMBEL, Ragweed, Common, Ambrosia artemiisifolia, L.; experiment: Postemergence herbicidal evaluation (Example 147); settings: rating scale 0-9, two to three weeks after treatment
Protocol: as §3

[24] = system: XANST, Cocklebur, Xanthium strumariam; experiment: Postemergence herbicidal evaluation (Example 147); settings: rating scale 0-9, two to three weeks after treatment
Protocol: as §3

CC(C)CCNS(=O)(=O)NC(=O)c1cc(-n2c(=O)cc(C(F)(F)F)n(C)c2=O)c(F)cc1Cl [Example 72]
Preemergence herbicidal rating IPOHE ([1]; rate 0.125 kg/ha): 9.0 | Preemergence herbicidal rating IPOHE ([1]; rate 0.25 kg/ha): 9.0 | Preemergence herbicidal rating TRZAW ([2]; rate 0.125 kg/ha): 0.0 | Preemergence herbicidal rating TRZAW ([2]; rate 0.25 kg/ha): 1.0 | Preemergence herbicidal rating ALMOY ([3]; rate 0.125 kg/ha): 1.0 | Preemergence herbicidal rating ALMOY ([3]; rate 0.25 kg/ha): 2.0 | Preemergence herbicidal rating GLXMA ([4]; rate 0.125 kg/ha): 8.0 | Preemergence herbicidal rating GLXMA ([4]; rate 0.25 kg/ha): 9.0 | Preemergence herbicidal rating SETVI ([5]; rate 0.125 kg/ha): 4.0 | Preemergence herbicidal rating SETVI ([5]; rate 0.25 kg/ha): 8.0 | Preemergence herbicidal rating CHEAL ([6]; rate 0.125 kg/ha): 9.0 | Preemergence herbicidal rating CHEAL ([6]; rate 0.25 kg/ha): 9.0 | Preemergence herbicidal rating ABUTH ([7]; rate 0.125 kg/ha): 9.0 | Preemergence herbicidal rating ABUTH ([7]; rate 0.25 kg/ha): 9.0 | Preemergence herbicidal rating DIGSA ([8]; rate 0.125 kg/ha): 2.0 | Preemergence herbicidal rating DIGSA ([8]; rate 0.25 kg/ha): 7.0 | Preemergence herbicidal rating ZEAMX ([9]; rate 0.125 kg/ha): 0.0 | Preemergence herbicidal rating ZEAMX ([9]; rate 0.25 kg/ha): 0.0 | Preemergence herbicidal rating ECHCG ([10]; rate 0.125 kg/ha): 7.0 | Preemergence herbicidal rating ECHCG ([10]; rate 0.25 kg/ha): 6.0 | Preemergence herbicidal rating XANST ([11]; rate 0.125 kg/ha): 7.0 | Preemergence herbicidal rating XANST ([11]; rate 0.25 kg/ha): 9.0 | Preemergence herbicidal rating AMBEL ([12]; rate 0.125 kg/ha): 9.0 | Preemergence herbicidal rating AMBEL ([12]; rate 0.25 kg/ha): 9.0 | Postemergence herbicidal rating IPOHE ([13]; rate 0.016 kg/ha): 9.0 | Postemergence herbicidal rating IPOHE ([13]; rate 0.032 kg/ha): 9.0 | Postemergence herbicidal rating TRZAW ([14]; rate 0.016 kg/ha): 5.5 | Postemergence herbicidal rating TRZAW ([14]; rate 0.032 kg/ha): 6.5 | Postemergence herbicidal rating ALMOY ([15]; rate 0.016 kg/ha): 1.0 | Postemergence herbicidal rating ALMOY ([15]; rate 0.032 kg/ha): 2.0 | Postemergence herbicidal rating GLXMA ([16]; rate 0.016 kg/ha): 8.5 | Postemergence herbicidal rating GLXMA ([16]; rate 0.032 kg/ha): 8.5 | Postemergence herbicidal rating SETVI ([17]; rate 0.016 kg/ha): 5.0 | Postemergence herbicidal rating SETVI ([17]; rate 0.032 kg/ha): 6.0 | Postemergence herbicidal rating CHEAL ([18]; rate 0.016 kg/ha): 8.0 | Postemergence herbicidal rating CHEAL ([18]; rate 0.032 kg/ha): 8.0 | Postemergence herbicidal rating ABUTH ([19]; rate 0.016 kg/ha): 9.0 | Postemergence herbicidal rating ABUTH ([19]; rate 0.032 kg/ha): 9.0 | Postemergence herbicidal rating DIGSA ([20]; rate 0.016 kg/ha): 4.0 | Postemergence herbicidal rating DIGSA ([20]; rate 0.032 kg/ha): 4.0 | Postemergence herbicidal rating ZEAMX ([21]; rate 0.016 kg/ha): 7.0 | Postemergence herbicidal rating ZEAMX ([21]; rate 0.032 kg/ha): 7.0 | Postemergence herbicidal rating ECHCG ([22]; rate 0.016 kg/ha): 6.0 | Postemergence herbicidal rating ECHCG ([22]; rate 0.032 kg/ha): 8.0 | Postemergence herbicidal rating AMBEL ([23]; rate 0.016 kg/ha): 9.0 | Postemergence herbicidal rating AMBEL ([23]; rate 0.032 kg/ha): 9.0

CCN(C)S(=O)(=O)NC(=O)c1cc(-n2c(=O)cc(C(F)(F)F)n(C)c2=O)c(F)cc1Cl [Example 66]
Preemergence herbicidal rating IPOHE ([1]; rate 0.125 kg/ha): 9.0 | Preemergence herbicidal rating IPOHE ([1]; rate 0.25 kg/ha): 9.0 | Preemergence herbicidal rating TRZAW ([2]; rate 0.125 kg/ha): 1.0 | Preemergence herbicidal rating TRZAW ([2]; rate 0.25 kg/ha): 1.0 | Preemergence herbicidal rating ALMOY ([3]; rate 0.125 kg/ha): 0.0 | Preemergence herbicidal rating ALMOY ([3]; rate 0.25 kg/ha): 2.0 | Preemergence herbicidal rating GLXMA ([4]; rate 0.125 kg/ha): 0.0 | Preemergence herbicidal rating SETVI ([5]; rate 0.125 kg/ha): 4.0 | Preemergence herbicidal rating SETVI ([5]; rate 0.25 kg/ha): 6.0 | Preemergence herbicidal rating CHEAL ([6]; rate 0.125 kg/ha): 9.0 | Preemergence herbicidal rating CHEAL ([6]; rate 0.25 kg/ha): 9.0 | Preemergence herbicidal rating ABUTH ([7]; rate 0.125 kg/ha): 9.0 | Preemergence herbicidal rating ABUTH ([7]; rate 0.25 kg/ha): 9.0 | Preemergence herbicidal rating DIGSA ([8]; rate 0.125 kg/ha): 4.0 | Preemergence herbicidal rating DIGSA ([8]; rate 0.25 kg/ha): 8.0 | Preemergence herbicidal rating ZEAMX ([9]; rate 0.125 kg/ha): 1.0 | Preemergence herbicidal rating ZEAMX ([9]; rate 0.25 kg/ha): 2.0 | Preemergence herbicidal rating ECHCG ([10]; rate 0.125 kg/ha): 4.0 | Preemergence herbicidal rating ECHCG ([10]; rate 0.25 kg/ha): 8.0 | Preemergence herbicidal rating AMBEL ([12]; rate 0.125 kg/ha): 9.0 | Preemergence herbicidal rating AMBEL ([12]; rate 0.25 kg/ha): 9.0 | Postemergence herbicidal rating IPOHE ([13]; rate 0.016 kg/ha): 9.0 | Postemergence herbicidal rating IPOHE ([13]; rate 0.032 kg/ha): 9.0 | Postemergence herbicidal rating TRZAW ([14]; rate 0.016 kg/ha): 5.0 | Postemergence herbicidal rating TRZAW ([14]; rate 0.032 kg/ha): 6.5 | Postemergence herbicidal rating ALMOY ([15]; rate 0.016 kg/ha): 1.0 | Postemergence herbicidal rating ALMOY ([15]; rate 0.032 kg/ha): 2.0 | Postemergence herbicidal rating GLXMA ([16]; rate 0.016 kg/ha): 8.0 | Postemergence herbicidal rating GLXMA ([16]; rate 0.032 kg/ha): 9.0 | Postemergence herbicidal rating SETVI ([17]; rate 0.016 kg/ha): 8.0 | Postemergence herbicidal rating SETVI ([17]; rate 0.032 kg/ha): 9.0 | Postemergence herbicidal rating CHEAL ([18]; rate 0.016 kg/ha): 8.0 | Postemergence herbicidal rating CHEAL ([18]; rate 0.032 kg/ha): 9.0 | Postemergence herbicidal rating ABUTH ([19]; rate 0.016 kg/ha): 9.0 | Postemergence herbicidal rating ABUTH ([19]; rate 0.032 kg/ha): 9.0 | Postemergence herbicidal rating DIGSA ([20]; rate 0.016 kg/ha): 5.0 | Postemergence herbicidal rating DIGSA ([20]; rate 0.032 kg/ha): 6.0 | Postemergence herbicidal rating ZEAMX ([21]; rate 0.016 kg/ha): 7.0 | Postemergence herbicidal rating ZEAMX ([21]; rate 0.032 kg/ha): 7.5 | Postemergence herbicidal rating ECHCG ([22]; rate 0.016 kg/ha): 8.0 | Postemergence herbicidal rating ECHCG ([22]; rate 0.032 kg/ha): 8.0 | Postemergence herbicidal rating XANST ([24]; rate 0.016 kg/ha): 9.0 | Postemergence herbicidal rating XANST ([24]; rate 0.032 kg/ha): 9.0 | Postemergence herbicidal rating AMBEL ([23]; rate 0.016 kg/ha): 9.0 | Postemergence herbicidal rating AMBEL ([23]; rate 0.032 kg/ha): 9.0
